Measured values: US20240261417A1, “SOS1 DEGRADING AGENT AND PREPARATION METHOD THEREFOR AND APPLICATION THEREOF” (SHANGHAI LEADINGTAC PHARMACEUTICAL CO. LTD., priority 2021, published 2024)

Tests used:
SOS1 protein = biological target: T1, SOS1 protein (Homo sapiens, UniProt Q07889); assay: SOS1 degradation assay (Western blot), NCI-H358 cells; assay type: cell-based; design: The degradation of SOS1 by the compounds was investigated on KRAS G12C mutant human non-small cell lung cancer cells NCI-H358; host or cells: NCI-H358 (human cancer cell lines); conditions: SOS1 degradation, NCI-H358 cells, 24 h, Western blot; for DC50: read-out: NCI-H358 (G12C) DC50; for Dmax: read-out: NCI-H358 (G12C) Dmax
T1 sequence (Q07889 1-1333): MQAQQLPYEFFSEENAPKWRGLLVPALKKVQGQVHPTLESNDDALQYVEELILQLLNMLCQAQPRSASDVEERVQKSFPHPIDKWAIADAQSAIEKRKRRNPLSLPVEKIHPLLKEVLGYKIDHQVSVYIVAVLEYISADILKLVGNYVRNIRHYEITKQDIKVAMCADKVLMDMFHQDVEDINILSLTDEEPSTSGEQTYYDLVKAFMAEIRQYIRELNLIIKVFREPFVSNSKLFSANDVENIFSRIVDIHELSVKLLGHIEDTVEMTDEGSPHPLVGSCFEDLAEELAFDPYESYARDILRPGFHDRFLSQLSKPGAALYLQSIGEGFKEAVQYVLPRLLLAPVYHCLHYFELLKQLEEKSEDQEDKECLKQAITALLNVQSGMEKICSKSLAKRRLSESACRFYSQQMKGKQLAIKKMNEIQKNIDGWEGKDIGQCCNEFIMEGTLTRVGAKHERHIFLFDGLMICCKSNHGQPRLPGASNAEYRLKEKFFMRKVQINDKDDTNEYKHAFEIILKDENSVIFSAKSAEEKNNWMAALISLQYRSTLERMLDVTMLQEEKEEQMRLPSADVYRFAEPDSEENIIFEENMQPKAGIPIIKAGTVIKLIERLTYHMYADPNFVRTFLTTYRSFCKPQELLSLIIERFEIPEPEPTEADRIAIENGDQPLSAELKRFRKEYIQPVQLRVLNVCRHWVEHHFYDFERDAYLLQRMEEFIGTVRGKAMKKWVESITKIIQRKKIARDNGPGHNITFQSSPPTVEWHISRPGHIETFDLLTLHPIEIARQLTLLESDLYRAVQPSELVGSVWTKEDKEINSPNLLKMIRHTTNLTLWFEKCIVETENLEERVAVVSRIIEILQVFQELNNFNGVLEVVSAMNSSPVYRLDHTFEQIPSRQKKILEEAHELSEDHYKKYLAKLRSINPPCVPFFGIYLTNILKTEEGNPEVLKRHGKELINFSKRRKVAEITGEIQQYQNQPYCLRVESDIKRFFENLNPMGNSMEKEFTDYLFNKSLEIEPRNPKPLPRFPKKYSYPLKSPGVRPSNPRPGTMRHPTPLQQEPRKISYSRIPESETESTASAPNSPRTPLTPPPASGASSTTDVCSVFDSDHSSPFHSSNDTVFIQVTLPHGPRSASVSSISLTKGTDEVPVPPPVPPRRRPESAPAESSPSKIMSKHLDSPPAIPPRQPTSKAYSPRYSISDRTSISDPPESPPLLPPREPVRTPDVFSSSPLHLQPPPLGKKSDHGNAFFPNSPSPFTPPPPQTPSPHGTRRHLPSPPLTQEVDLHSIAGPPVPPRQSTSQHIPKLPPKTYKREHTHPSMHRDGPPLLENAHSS
Summary of the method: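 SOS1 degradation was assessed by densitometry of Western blots, relative to untreated controls, after 24 h compound exposure (0.03–3000 nM final, 37 °C, 5% CO2) of cells seeded at 5×10^5/well. Log concentration–response fitting gave DC50 and Dmax.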

KRAS-G12C/SOS1 = biological target: T2, KRAS-G12C/SOS1 (Homo sapiens, UniProt Q07889); assay: KRAS-G12C/SOS1 binding assay (HTRF); conditions: inhibition of KRAS-G12C/SOS1 binding
T2 construct: purchased Cisbio 63ADKOOOCB16PEG
T2 sequence (Q07889 1-1333): T1 sequence (Q07889 1-1333)
Protocol: The following method was used to determine the extent of inhibition of KRAS-G12C/SOS1 binding by the preferred compounds of the present invention under in vitro conditions. In this method, the competitive inhibition of KRAS-G12C/SOS1 binding by the preferred compounds was assayed by the homogeneous time-resolved fluorescence (HTRF) technology using the KRAS-G12C/SOS1 binding assay kit (Cisbio, 63ADKOOOCB16PEG).
The experimental procedures were as follows (refer to the kit instructions for details): the compounds of the present invention were each firstly dissolved in DMSO at a concentration of 20 mM, and then diluted in an equal gradient with a buffer in the kit, so that the final concentrations of the test compounds in the reaction system were in a range of 10000 nM-0.04 nM, and the final concentration of DMSO was 0.5%. 2 μL of the compounds were each incubated with 4 μL of 1×Tag1-SOS1, 4 μL of 1×Tag2-KRAS-G12C (containing 10 μM guanosine triphosphate, GTP) at 25° C. for 15 min. Then 5 μL of 1× Anti-Tag1-Tb3+ and 5 μL of 1× Anti-Tag2-XL665 were added to the reaction system, and the mixture was incubated on ice for 3 h. After the incubation, the fluorescence intensity of each well was measured at the excitation wavelength of 337 nm, the fluorescence intensity of each well was read at the emission wavelengths of 620 nm and 665 nm on a microplate reader EnVision (PerkinElmer, 2105) in an HTRF mode, and the Ratio value was calculated by the formula Ratio=(665 nm/620 nm)×[…]. The inhibition rates of the compounds at each concentration were calculated by comparing the fluorescence intensity ratio with that of the control group, and then nonlinear curve fitting was performed by GraphPad Prism 8 in the logarithmic concentration-inhibition rate to obtain the IC50 values of the compounds, as shown in Table 1.

DC50 (SOS1 protein)	Dmax (SOS1 protein)	IC50 (KRAS-G12C/SOS1)	SMILES
< 50 nM	80 to 100%	≤ 15 nM	COc1cc2nc(C)nc(N[C@H](C)c3cc(-c4c(Cl)cccc4CN(C)C)cs3)c2cc1[C@H]1CC[C@H](C(=O)N2CCN(CCOCC3CCN(C(=O)c4ccc(Cl)c(N5CCC(=O)NC5=O)c4)CC3)CC2)CC1 [Example 67, 1-(2-chloro-5-(4-((2-(4-((1R,4R)-4-(4-(((R)-1-(4-(2-chloro-6-((dimethylamino)methyl)phenyl)thien-2-yl)ethyl)amino)-7-methoxy-2-methylquinazolin-6-yl)cyclohexane-1-carbonyl)piperazin-1-yl)ethoxy)methyl)piperidine-1-carbonyl)phenyl)dihydropyrimidine-2,4(1H,3H)-dione]
< 50 nM	80 to 100%	≤ 15 nM	COc1cc2nc(C)nc(N[C@H](C)c3cc(N)cc(C(F)(F)F)c3)c2cc1[C@H]1CC[C@H](C(=O)N2CCN(CCN3CCC4(CC3)CCN(C(=O)c3ccc(Cl)c(N5CCC(=O)NC5=O)c3)CC4)CC2)CC1 [Example 3, 1-(5-(9-(2-(4-((1R,4R)-4-(4-(((R)-1-(3-amino-5-(trifluoromethyl)phenyl)ethyl)amino)-7-methoxy-2-methylquinazolin-6-yl)cyclohexane-1-carbonyl)piperazin-1-yl)ethyl)-3,9-diazaspiro[5.5]undecane-3-carbonyl)-2-chlorophenyl)dihydropyrimidine-2,4(1H,3H)-dione]
< 50 nM	50 to 80%	≤ 15 nM	CNCc1cccc(Cl)c1-c1csc([C@@H](C)Nc2nc(C)nc3cc(OC)c([C@H]4CC[C@H](C(=O)N5CCC(CCOCC6CCN(C(=O)c7ccc(Cl)c(N8CCC(=O)NC8=O)c7)CC6)CC5)CC4)cc23)c1 [Example 69, 1-(2-chloro-5-(4-((2-(1-((1R,4R)-4-(4-(((R)-1-(4-(2-chloro-6-((methylamino)methyl)phenyl)thien-2-yl)ethyl)amino)-7-methoxy-2-methylquinazolin-6-yl)cyclohexane-1-carbonyl)piperidin-4-yl)ethoxy)methyl)piperidine-1-carbonyl)phenyl)dihydropyrimidine-2,4(1H,3H)-dione]
< 50 nM	50 to 80%	≤ 15 nM	COc1cc2nc(C)nc(N[C@H](C)c3cc(-c4c(Cl)cccc4CN(C)C)cs3)c2cc1C1=CCC(C(=O)N2CCC(CCOCC3CCN(C(=O)c4ccc(Cl)c(C5CCC(=O)NC5=O)c4)CC3)CC2)CC1 (stereo partly drawn) [Example 46, 3-(2-chloro-5-(4-((2-(1-(4-(4-(((R)-1-(4-(2-chloro-6-((dimethylamino)methyl)phenyl)thien-2-yl)ethyl)amino)-7-methoxy-2-methylquinazolin-6-yl)cyclohex-3-ene-1-carbonyl)piperidin-4-yl)ethoxy)methyl)piperidine-1-carbonyl)phenyl)piperidine-2,6-dione]
< 50 nM	80 to 100%	≤ 15 nM	CNCc1ccccc1-c1csc([C@@H](C)Nc2nc(C)nc3cc(OC)c([C@H]4CC[C@H](C(=O)N5CCN(CCC6CCC7(CC6)CCN(C(=O)c6ccc(Cl)c(N8CCC(=O)NC8=O)c6)CC7)CC5)CC4)cc23)c1 [Example 50]
1000 to 10000 nM	< 30%	≤ 15 nM	CNCc1ccccc1-c1csc([C@@H](C)Nc2nc(C)nc3cc(OC)c([C@H]4CC[C@H](C(=O)N(C)CCCC5CCN(C(=O)c6ccc(Cl)c(N7CCC(=O)NC7=O)c6)CC5)CC4)cc23)c1 [Example 47, (1R,4R)—N-(3-(1-(4-chloro-3-(2,4-dioxotetrahydropyrimidin-1(2H)-yl)benzoyl)piperidin-4-yl)propyl)-4-(7-methoxy-2-methyl-4-(((R)-1-(4-(2-((methylamino)methyl)phenyl)thien-2-yl)ethyl)amino)quinazolin-6-yl)-N-methylcyclohexane-1-carboxamide]
